# Data from article PMC10526274, “Epithelial-Immune Cell Crosstalk Determines the Activation of Immune Cells In Vitro by the Human Cathelicidin LL-37 at Low Physiological Concentrations” (Biomolecules, 2023).
# System: monocytes in Caco-2/Monocytes co-culture
# Assay: Multiplex phosphoprotein signaling in monocyte lysates, Caco-2/monocytes co-culture + LL-37
# Type: cell-based, human
# Conditions: monocyte lysate, 1 µM LL-37, 2 h, mean MFI normalized to β-tubulin
# Experimental: Primary blood monocytes were isolated from PBMCs by plastic adhesion in the wells of a 24-well plate 24 h prior to the experiment. For that, 2 × 10^6 PBMC were seeded in each well in 2 mL of RPMI-1640 without supplements and kept for 1 h in a humidified CO2-incubator (5% CO2, 37 °C). Then, the adhered monocytes were thoroughly washed 3 times with the culture medium without supplements, and 600 µL of the complete RPMI-1640, supplemented with 10% Human AB serum, was added into each well. Then, 24 h later, the medium in the wells of a 24-well plate was replaced by a fresh medium with or without 1 µM of LL-37, and the permeable inserts with Caco-2 monolayers with TEER > 400 Ω × cm^2, containing 400 μL of the complete medium in their apical chamber, were immediately placed into the appropriate wells for 2 h. Then, 2 h later, the culture medium and the inserts were carefully removed, and the cells in each well were washed with PBS and lysed in 100 µL of MILLIPLEX MAP Lysis Buffer (cat. #43-040, Merck, Darmstadt, Germany), containing phosphatase inhibitors including 1 mM sodium orthovanadate (Na3VO4). To prevent protein degradation, a protease inhibitor cocktail (cat. #535140, Merck) was freshly added to the MILLIPLEX MAP Lysis Buffer. Cell lysate preparation was performed in accordance with the manufacturer’s instructions.
# The phosphorylation of the following key cell signaling kinases and transcription factors was measured in cell lysates by using the MILLIPLEX multi-pathway magnetic bead 9-plex kit (#48-680MAG, Merck), containing phosphorylation state-specific antibodies: ERK/MAP kinase 1/2 (Thr185/Tyr187), Akt (Ser473), STAT3 (Ser727), JNK (Thr183/Tyr185), p70S6 kinase (Thr412), NF-κB (Ser536), STAT5A/B (Tyr694/699), CREB (Ser133), and p38 (Thr180/Tyr182). β-Tubulin MAPmate magnetic beads (#46-713MAG, Merck) were used as an assay normalization control to normalize the total protein level between the samples. A multiplex assay was carried out in accordance with the manufacturer’s instructions with overnight incubation of the samples with primary antibodies to phosphorylated signaling proteins on the MAGPIX system (Merck) using the xPONENT 4.2 software (Merck). The final analysis of the acquired fluorescence data was performed with the MILLIPLEX Analyst v5.1 software (Merck). Normalized MFI values were compared with an unpaired two-sample t-test using GraphPad Prism v.8.0.1 (GraphPad Software). The p-values ≤ 0.05 were considered significant.
substance,measurement,setting,value
"LL-37: the only human cathelicidin, host defense antimicrobial peptide of 37 a.a. residues, produced by solid-phase peptide synthesis",phosphorylated STAT3,control 0.06,0.06 MFI
same,phosphorylated NF-kB,control 0.09,0.09 MFI
same,phosphorylated STAT5,control 0.09,0.09 MFI
same,phosphorylated JNK,control 48.84,176.7 MFI
same,phosphorylated p70S6K,control 472.48,902.08 MFI
same,phosphorylated Akt,control 2712,2358 MFI
same,phosphorylated ERK 1/2,control 5812,11464 MFI
same,phosphorylated p38,control 17697,21951 MFI
same,phosphorylated CREB,control 81479,106317 MFI
